Non-standard residues stand in square brackets, D forms with d. Residues, ends and D or L forms follow the SMILES beside them. *: point of attachment. PEG8 = NCCOCCOCCOCCOCCOCCOCCOCCOCCC(=O)O; Palmitoyl = CCCCCCCCCCCCCCCC(=O)*; Tic = O=C(O)[C@@H]1Cc2ccccc2CN1; Nle = CCCC[C@H](N)C(=O)O; Nva = CCC[C@H](N)C(=O)O
Assays:
[1] = tested on: conjunctival goblet cells (GC); assay: Conjunctival goblet cell density measurement, dry eye; assay type: in vivo, mouse; settings: superior and inferior conjunctiva; FIG. 4 and 6
Protocol: In FIGS. 4 and 6, conjunctival goblet cells (GC) measurement is performed as follows. Enucleated mouse eyes with intact conjunctiva were fixed in 10% formalin and embedded in paraffin. Six-micrometer sections were stained with periodic acid-Schiff reagent.

CD4+ T cells = assay: Immunohistochemistry count of CD4+ T cells in conjunctival epithelium, dry eye; assay type: in vivo, mouse; settings: FIG. 3 and 5
Protocol: In FIGS. 3 and 5, immunohistochemistry is used to detect CD4+ T cells. Enucleated mouse eyes with intact conjunctiva were suspended in optimal cutting temperature (OCT) compound and flash frozen in liquid nitrogen. Immunohistochemistry was performed on six micrometer frozen sections to detect and count the number of cells in conjunctival epithelium that stained positively for CD4, a biotinylated secondary antibody and NovaRED peroxidase. Positively stained cells were counted in the conjunctiva using Nikon imaging software.

SMILES	dry eye induced loss of goblet cell density [1]	dry eye induced CD4+ T-cells infiltration (CD4+ T cells)
CCCCCCCCCCCCCCCC(=O)NCCOCCOCCOCCOCCOCCOCCOCCOCCC(=O)NCC(=O)NCC(=O)N[C@H](Cc1ccc(O)cc1)C(=O)N[C@@H](Cc1ccccc1)C(=O)N[C@@H](CC(C)C)C(=O)N1CCC[C@H]1C(=O)N[C@H](CO)C(=O)N[C@@H](CCC(N)=O)C(=O)N[C@@H](Cc1ccccc1)C(=O)N[C@H](C)C(=O)N1Cc2ccccc2C[C@H]1C(=O)N[C@@H](CO)C(=O)O [OK-101, Gly-Gly-dTyr-Phe-Leu-Pro-dSer-Gln-Phe-dAla-Tic-Ser] ({Palmitoyl-PEG8}-GG[dY]FLP[dS]QF[dA][Tic]S-OH)	normalized	significantly reduced
CCCCCCCCCCCCCCCC(=O)NCCOCCOCCOCCOCCOCCOCCOCCOCCC(=O)N[C@@H](CCC)C(=O)NCC(=O)N[C@H](Cc1ccc(O)cc1)C(=O)N[C@@H](Cc1ccccc1)C(=O)N[C@@H](CCCC)C(=O)N1CCC[C@H]1C(=O)N[C@H](CO)C(=O)N[C@@H](CCC(N)=O)C(=O)N[C@@H](Cc1ccccc1)C(=O)N[C@H](C)C(=O)N1Cc2ccccc2C[C@H]1C(=O)N[C@H](C)C(=O)O [OK-113, NorV-Gly-dTyr-Phe-Nle-Pro-dSer-Gln-Phe-dAla-Tic-dAla] ({Palmitoyl-PEG8}-[Nva]G[dY]F[Nle]P[dS]QF[dA][Tic][dA]-OH)	normalized	significantly reduced

Reference: patent publication US12559523B2, “Compositions comprising chemerin analogs and methods of use” (OKYO Pharma Limited, priority 2019, dated 2026)
